Here are results for four compounds from patent publication US8487111B2, “Substituted oxazolidinones and their use” (Bayer Intellectual Property GmbH, priority 2007, dated 2013).

Molecules are shown by their SMILES. pIC50: −log10 of the molar value.

One test has as its target factor Xa (Homo sapiens (Human), UniProt P00742). The experiment in a line: Determination of the factor Xa-inhibitory activity in plasma samples (RVV-activated factor X, chromogenic substrate). The test is classed as biochemical. Conditions: factor Xa inhibition in citrate plasma (Octapharma), RVV-stimulated, ChromozymX substrate. How it is done: a.4) Determination of the Factor Xa-Inhibitory Activity of the Potential Inhibitors in Plasma Samples
To determine the inhibition of factor Xa in plasma samples, the factor X present in plasma is activated by a protease from rattlesnake toxin. The factor Xa activity or its inhibition by potential inhibitors is then measured by addition of a chromogenic substrate.
Various concentrations of the substances to be tested are dissolved in dimethyl sulphoxide and mixed with an aqueous refludan solution (10 μg/ml). In clear 96-well plates having a flat bottom, 30 μl of citrate plasma (Octapharma) are mixed with 10 μl of the substance dilution. Then, either 20 μl of a solution of a rattlesnake toxin (Russel viper venom (RVV); RVV reagent: Pentapharm 121-06, final concentration 0.6 mU) in an aqueous calcium chloride solution buffer (final concentration of calcium chloride 0.05 M) or 20 μl of the aqueous calcium chloride solution (final concentration of calcium chloride 0.05 M) without RVV reagent (as reference for an unstimulated sample) are added. After addition of 20 μl of ChromozymX substrate (final concentration 1.6 mmol/l, Bachem L-1565, diluted in water) the samples are measured in a SpectraFluor Reader using a measurement filter of 405 nm each minute over a period of 20 minutes. The IC50 value is determined when about 70% of the maximum signal is reached (about 12 min).

The target of a further test is thrombin (Homo sapiens (Human), UniProt P00734). Nature of the test: Determination of the thrombin-inhibitory activity in plasma samples (ecarin, fluorogenic thrombin substrate). The test is classed as biochemical. Conditions: thrombin inhibition in citrate plasma (Octapharma), ecarin-stimulated. How it is done: a.5) Determination of the Thrombin-Inhibitory Activity of the Potential Inhibitors in Plasma Samples
Various concentrations of the substances to be tested are dissolved in dimethyl sulphoxide and diluted with water. In white 96-well plates having a flat bottom, 20 μl of substance dilution are mixed with 20 μl of ecarin solution (ecarin reagent, from Sigma E-0504, final concentration 20 mU per batch) in Ca buffer (200 mM Hepes+560 mM sodium chloride+10 mM calcium chloride+0.4% PEG) or with 20 μl of Ca buffer (as unstimulated control). Furthermore, 20 μl of fluorogenic thrombin substrate (from Bachem I-1120, final concentration 50 μmol/l) and 20 μl of citrate plasma (from Octapharma) are added and homogenized thoroughly. The plate is measured in a SpectraFluorplus Reader using an excitation filter of 360 nm and an emission filter of 465 nm each minute over a period of 20 minutes. The IC50 value is determined when about 70% of the maximum signal is reached (about 12 min).

Sequence of factor Xa (P00742 whole entry, looked up): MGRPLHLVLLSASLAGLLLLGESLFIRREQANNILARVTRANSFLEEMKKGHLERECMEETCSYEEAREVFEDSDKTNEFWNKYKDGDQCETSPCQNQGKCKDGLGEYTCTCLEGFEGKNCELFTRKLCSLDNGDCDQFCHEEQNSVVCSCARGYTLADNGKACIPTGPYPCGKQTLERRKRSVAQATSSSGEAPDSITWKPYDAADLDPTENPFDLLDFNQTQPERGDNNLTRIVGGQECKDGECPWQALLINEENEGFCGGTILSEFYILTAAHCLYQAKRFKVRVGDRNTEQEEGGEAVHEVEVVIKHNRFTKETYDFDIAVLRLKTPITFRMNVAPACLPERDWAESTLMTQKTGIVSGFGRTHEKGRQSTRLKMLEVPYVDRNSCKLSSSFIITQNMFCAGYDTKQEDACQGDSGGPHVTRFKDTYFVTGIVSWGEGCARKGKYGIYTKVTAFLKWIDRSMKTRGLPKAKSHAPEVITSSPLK
Sequence of factor Xa (P00742 whole entry, looked up): as above

For `Cc1cc(N2C[C@H](CNC(=O)c3ccc(Cl)s3)OC2=O)ccc1-n1cccc(CO)c1=O` [Example 2, 5-Chloro-N-[((5S)-3-{4-[3-(hydroxymethyl)-2-oxopyridin-1(2H)-yl]-3-methylphenyl}-2-oxo-1,3-oxazolidin-5-yl)methyl]thiophene-2-carboxamide], the pIC50 (as a rule, the negative decadic logarithm of the IC50, by convention in mol/L) on factor Xa is 7.68; on thrombin it was 6.70.

As for `COCc1cc(N2C[C@H](CNC(=O)c3ccc(Cl)s3)OC2=O)ccc1-n1cccc(CCO)c1=O` [Example 8], the pIC50 is 6.78 against factor Xa and 7.80 at thrombin.

As for `Cc1cc(N2C[C@H](CNC(=O)c3ccc(Cl)s3)OC2=O)ccc1-n1cccc(CCCO)c1=O` [Example 10, 5-Chloro-N-{[(5S)-3-{4-[3-(3-hydroxypropyl)-2-oxopyridin-1(2H)-yl]-3-methylphenyl}-2-oxo-1,3-oxazolidin-5-yl]methyl}thiophene-2-carboxamide], the pIC50 on factor Xa was 7.40; against thrombin, 7.13.

As to `Cc1cc(N2C[C@H](CNC(=O)c3ccc(Cl)s3)OC2=O)ccc1-n1cccc(CCO)c1=O` [Example 6, 5-Chloro-N-[((5S)-3-{4-[3-(2-hydroxyethyl)-2-oxopyridin-1(2H)-yl]-3-methylphenyl}-2-oxo-1,3-oxazolidin-5-yl)methyl]thiophene-2-carboxamide], the pIC50 on factor Xa is 7.15; against thrombin, 6.73.
